Reference: patent US20210177862A1, “METHOD FOR TREATING NEUROCOGNITIVE DYSFUNCTION” (Tonix Pharma Holdings Limited, priority 2008, published 2021)

Assays:
[1] = system: pulmonary sarcoidosis; assay type: in vivo, human; details: prednisone tapered from 40 mg to 25 mg a day
Excerpt: (§1) Patient was diagnosed with a medical condition known as pulmonary sarcoidosis in which immune cells (lymphocytes and macrophages) are abnormally activated and accumulate in the lung, progressively destroying the architecture and functional capacity of lung tissue. Treatment is necessary to prevent progression of the disease and loss of more pulmonary functional capacity. Standard treatment is with systemic corticosteroids due to the capacity of corticosteroids for suppressing immune function. Patient was started on prednisone 40 mg by mouth each morning, with a plan to taper the dose by 5 mg every two weeks until at 25 mg a day. After three months the level of response to corticosteroids would be assessed by repeat pulmonary function tests and chest x-ray. If the disease process was responsive to corticosteroids, the treatment would be continued to finish a full year on about 25 mg a day.
The memory disturbance was profound and sharply contrasted with patient's normal memory function. The “foggy” feeling was present all day long, and was similar to the feeling of having taken a sedating antihistamine like diphenhydramine (Benadryl). Patient found they could only concentrate with much effort, with rapidly developing mental fatigue preventing sustained efforts. […]

[2] = system: corticosteroid-induced cognitive impairment; assay: Case report (Example 1): tianeptine given to a patient with cognitive side effects from prednisone therapy; assay type: in vivo, human
Excerpt: as §1
The memory disturbance was profound and sharply contrasted with patient's normal memory function. The “foggy” feeling was present all day long, and was similar to the feeling of having taken a sedating antihistamine like diphenhydramine (Benadryl). Patient found they could only concentrate with much effort, with rapidly developing mental fatigue preventing sustained efforts. Examples of memory impairment resulting from the prednisone were much like some of the memory disturbance seen in Alzheimer's dementia in which there is impairment in the process of consolidation of short term memories into long term memories, a process known to depend on intact hippocampal function.
Patient began tianeptine (Stablon) at 12.5 mg, one pill in the morning. Four days later, patient increased the dose to 12.5 mg twice a day, finally, two days after the prior increase, patient increased the dose to 25 mg each morning and 12.5 mg each evening. In the first several days taking tianeptine, patient noted the “foggy” feeling had gone away.
Although beginning tianeptine correlated with the rapid improvement in cognitive function, it was uncertain whether the tianeptine was responsible for the improvement.
There was the alternate possibility that patient was simply adjusting to the corticosteroids, with reduction in the cognitive side effects manifesting over the first several weeks after beginning corticosteroids. Nonetheless, patient continued to take the tianeptine. Also, it seemed possible that prednisone at 40 mg a day had been producing worse side effects than the lower doses of 35 mg, 30 mg, and 25 mg a day patient had tapered down to after starting the tianeptine.
Patient stopped tianeptine treatment two months later, tapering the dose over three days. Within about 2-3 days after the final dose of tianeptine, patient experienced the gradual emergence of the same cognitive side effects of the corticosteroids that patient had been experiencing in before initial tianeptine treatment including poor memory, extreme difficulty concentrating and sustaining mental effort, and the general “foggy” feeling once again pervading. This continued up for two weeks when patient restarted tianeptine treatment. […] Patient has continued on tianeptine 25 mg each morning and 12.5 mg each evening since then.

[3] = patient on prednisone, first several days taking tianeptine

Row | SMILES | follow-up pulmonary function tests [1] | time frame of effect after initiation of treatment ([2]; mitigation of corticosteroid cognitive side effects) [h] | effect of tianeptine in mitigating the side effects of the corticosteroids ([2]; off/on tianeptine episode, 25 mg each morning and 12.5 mg each evening) | ability to concentrate [2, 3] | episodic memory [2, 3] | "foggy" feeling ([2]; patient on prednisone, first several days taking tianeptine 12.5 mg up to 25 mg morning + 12.5 mg evening, oral) | time after restarting tianeptine to definite improvement ([2]; restart after two weeks off tianeptine, on prednisone) [h] | cognitive function after restarting tianeptine ([2]; three days after restart, on prednisone) | time after final dose of tianeptine to gradual emergence of the same cognitive side effects of the corticosteroids ([2]; tianeptine stopped (tapered over three days), prednisone 25 mg a day continued) [days]
1 | C[C@]12C=CC(=O)C=C1CC[C@@H]1[C@@H]2C(=O)C[C@@]2(C)[C@H]1CC[C@]2(O)C(=O)CO [prednisone] | indicated improvement |  |  |  |  |  |  |  | 
2 | CN1c2ccccc2C(NCCCCCCC(=O)O)c2ccc(Cl)cc2S1(=O)=O (stereo not drawn) [tianeptine, 7-[(3-chloro-6,11-dihydro-6-methyl-dibenzo[c,f][1,2]thiazepin-11-yl)amino] heptanoic acid S,S-dioxide] |  | 24 to 72 | large effect | appeared to normalize | significantly improved | had gone away | ≤ 24 | pretty much returned to normal baseline | 2 to 3
